In US20070161592A1, “Method of treating fear” (priority 2005, published 2007):
Entries after “also recorded” stand apart in the source; their conditions may differ.

Experiments:
[1] = system: NR1/NR2B; conditions: cited from earlier work
[2] = system: C57BL/6 male mice; assay: Mouse fear conditioning (contextual and auditory fear memory, freezing); type: in vivo
Description: siRNA corresponding to NR2B (sense 5′-GGAUGAGUCCUCCAUGUUCtt-3′ and antisense 5′-GAACAUGGAGGACUCAUCCtt-3′, Silencer Pre-designed siRNA, ID #61879, Ambion, Tex.) was delivered into the ACC by microelectroporation, which was performed as described previously (Wei et al., 2003). Briefly, 0.5 μl of 1:4 mixture of siRNA (2.5 μg/μl) and pEGFP-N1 (1 μg/μl) was injected into the ACC (0.7 mm anterior to Bregma, ±0.4 mm lateral from the midline, 1.8 mm beneath the surface of the skull) (Franklin and Paxinos, 1997) through a 30-gauge injection cannula. Then, square-wave electric pulses (five pulses at 1 Hz, 50 ms duration at 40 V) were delivered through a pair of silver electrodes placed 2 mm anterior and 1 mm posterior to the injection site using a S48 Stimulator (Grass Instruments). Control groups consisted of a group receiving only the electroporation shock, pEGFP-N1, or Silencer Negative control siRNA (#4611, Ambion) and pEGFP-N1. Western blot analysis was performed 4 days after electroporation and electrophysiological recordings were taken 2-4 days after.
Under ketamine and xylazine anesthesia, 24-guage guide cannulas were implanted bilaterally into the ACC (0.7 mm anterior to Bregma, ±0.4 mm lateral from the midline, 1.7 mm beneath the surface of the skull) or dorsal hippocampus (2.0 mm posterior to Bregma, ±1.5 mm lateral from the midline, 1.9 mm beneath the surface of the skull). Mice were given at least 2 weeks to recover after cannula implantation. All procedures were performed in accordance with the requirements of the Animal Studies Committee at the University of Toronto. The 30-gauge injection cannula was 0.1 mm lower than the guide. For intra-ACC infusion, 0.5 μl Ro25-6981 (4 μg/μl) or saline was delivered bilaterally within 90 s using a pump. 15 min later mice were conditioned by one pairing of a tone (2.8 kHz, 85 dB, 30 s) and a foot shock (0.75 mA, 2 s) that terminated at the same time as the tone. For intra-hippocampal infusion, 0.5 μl Ro25-6981 (10 μg/μl) or saline was delivered bilaterally within 90 s. 15 min later mice received one pairing of a tone and a foot shock, as above. One day later, animals were exposed to the conditioning context without a tone for 3 min and freezing responses were scored automatically (Freeze view software, Actrimetrics, Wilmette, Ill.).
NR2B subunit inhibition in adult mice was examined to determine whether this impairs the formation of contextual fear memory. Three days after bilateral siRNA electroporation, mice were trained (or conditioned) and then tested for contextual fear memory by assessing freezing behavior in the same environmental context after 24 hours. There was no difference in baseline freezing or in freezing immediately following the shock/tone pairing between groups; however, there was a significant difference between groups when tested in the contextual environment one day later (n=8 for EGFP only; n=10 for control siRNA; n=8 for shock only; n=11 for NR2B siRNA; one-way ANOVA, p=0.005; FIG. 8C). […] Since the activation of NR2B was suppressed throughout the training and memory test, the roles of NR2B during the acquisition and retrieval of fear memory cannot be distinguished. Recently, electric stimulation of the ACC was reported to induce fear memory one and three days after stimulation (Tang et al., 2005), which implies that the ACC may be involved in the acquisition of fear memory. To directly address this issue, the effect of NR2B blockade using Ro25-6981 was examined. […] In order to rule out any locomotor side-effects, locomotor activity in the open field was tested after bilateral ACC microinjection of Ro25-6981 (n=4) or vehicle (n=4).

[3] = mice, 5 μg in 0.5 μl bilaterally into dorsal hippocampi, tested one day after training

Row | Compound | IC50 [1] [nM] | auditory fear memory ([2]; mice, 2 μg in 0.5 μl per side into the bilateral ACC) | auditory fear memory [2, 3] | contextual fear memory [2, 3] | baseline or immediate freezing behavior ([2]; mice, ACC microinjection) | baseline or immediate freezing behavior ([2]; mice, hippocampal microinjection) | contextual fear memory (freezing in the contextual environment) ([2]; mice, microinjection 2 μg in 0.5 μl per side into the bilateral ACC before conditioning) | baseline freezing or freezing immediately following the shock/tone pairing ([2]; bilateral siRNA electroporation into ACC) | contextual fear memory (freezing in the contextual environment) ([2]; bilateral siRNA electroporation into ACC, trained three days later, tested after 24 hours)
1 | C[C@@H](CN1CCC(Cc2ccccc2)CC1)[C@@H](O)c1ccc(O)cc1 [Ro25-6981] | 9 | no difference in auditory fear memory | did not affect | did not impair contextual fear memory; also recorded: did not affect | did not significantly affect | did not significantly affect | decreased contextual fear memory; also recorded: significant reduction in freezing | – | –
2 | NR2B siRNA: siRNA corresponding to NR2B, sense 5′-GGAUGAGUCCUCCAUGUUCtt-3′, antisense 5′-GAACAUGGAGGACUCAUCCtt-3′, Silencer Pre-designed siRNA ID #61879, Ambion (sense GGAUGAGUCCUCCAUGUUCTT; antisense GAACAUGGAGGACUCAUCCTT; chemistry not given here) | – | – | – | – | – | – | – | no difference | impaired contextual fear memory; also recorded: significantly less freezing
